Test results published in PubChem BioAssay AID2060907 (Molecular Pharmacology Branch, DTP, NCI, 2025).

Tested on: 388556-164-R-J1-PDC complex spheroid viability
Assay: Anticancer human tumor 388556-164-R-J1-PDC patient-derived colon adenocarcinoma cell line growth inhibition [RAS]
Settings: for IC50: curve of first compound; for viability, T/C: stronger effect = lower value
In short: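 Tumour cells grown as complex spheroids with HUVEC endothelial cells and mesenchymal stem cells, treated with RAS pathway inhibitor combinations. Each agent spans half-log steps from near clinical Cmax, or 10 microM where Cmax is unknown.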

[1] = second compound 0.00316 µM, first compound 0.00316 µM
[2] = second compound 0.00316 µM, first compound 0.01 µM
[3] = second compound 0.00316 µM, first compound 0.0316 µM
[4] = second compound 0.00316 µM, first compound 0.1 µM
[5] = second compound 0.01 µM, first compound 0.00316 µM
[6] = second compound 0.01 µM, first compound 0.01 µM
[7] = second compound 0.01 µM, first compound 0.0316 µM
[8] = second compound 0.01 µM, first compound 0.1 µM
[9] = second compound 0.0316 µM, first compound 0.00316 µM
[10] = second compound 0.0316 µM, first compound 0.01 µM
[11] = second compound 0.0316 µM, first compound 0.0316 µM
[12] = second compound 0.0316 µM, first compound 0.1 µM
[13] = second compound 0.1 µM, first compound 0.00316 µM
[14] = second compound 0.1 µM, first compound 0.01 µM
[15] = second compound 0.1 µM, first compound 0.0316 µM
[16] = second compound 0.1 µM, first compound 0.1 µM
[17] = second compound 0.316 µM, first compound 0.00316 µM
[18] = second compound 0.316 µM, first compound 0.01 µM
[19] = second compound 0.316 µM, first compound 0.0316 µM
[20] = second compound 0.316 µM, first compound 0.1 µM
[21] = second compound 1 µM, first compound 0.00316 µM
[22] = second compound 1 µM, first compound 0.01 µM
[23] = second compound 1 µM, first compound 0.0316 µM
[24] = second compound 1 µM, first compound 0.1 µM
[25] = second compound 0.00316 µM, first compound 0.316 µM
[26] = second compound 0.00316 µM, first compound 1 µM
[27] = second compound 0.01 µM, first compound 0.316 µM
[28] = second compound 0.01 µM, first compound 1 µM
[29] = second compound 0.0316 µM, first compound 0.316 µM
[30] = second compound 0.0316 µM, first compound 1 µM
[31] = second compound 0.1 µM, first compound 0.316 µM
[32] = second compound 0.1 µM, first compound 1 µM
[33] = second compound 0.316 µM, first compound 0.316 µM
[34] = second compound 0.316 µM, first compound 1 µM
[35] = second compound 1 µM, first compound 0.316 µM
[36] = second compound 1 µM, first compound 1 µM
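Also: spheroids exposed to compound for 7 days before readout.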
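For viability, T/C in this document: 100% = DMSO vehicle control luminescence.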

Work on `CC(C)n1nc(-c2ccc3oc(N)nc3c2)c2c(N)ncnc21` + C=CC(=O)N1CCN(c2nc(OCC3CCCN3C)nc3c(F)c(-c4nc(N)cc(C)c4C(F)(F)F)c(Cl)cc23)C(C)C1 yielded an IC50 (second compound 0.00316 µM) of 69 nM, an IC50 (second compound 0.01 µM) of 74.3 nM and an IC50 (second compound 0.0316 µM) of 64.6 nM. The IC50 (second compound 0.1 µM) was 77.2 nM, the IC50 (second compound 0.316 µM) was 75 nM and the IC50 (second compound 1 µM) was 51.4 nM. It also gave a viability, T/C (second compound 0.00316 µM, first compound 0.000316 µM) of 102%, a viability, T/C (second compound 0.00316 µM, first compound 0.001 µM) of 98.2% and a viability, T/C [1] of 91.9%. For the same molecule, the viability, T/C [2] was 74.8%, the viability, T/C [3] was 66.5% and the viability, T/C [4] was 42.7%. For the same molecule, the viability, T/C (second compound 0.01 µM, first compound 0.000316 µM) was 100%, the viability, T/C (second compound 0.01 µM, first compound 0.001 µM) was 95.3% and the viability, T/C [5] was 95.3%. The viability, T/C [6] was 76.7%, the viability, T/C [7] was 56% and the viability, T/C [8] was 47.8%. For the same molecule, the viability, T/C (second compound 0.0316 µM, first compound 0.000316 µM) was 104%, the viability, T/C (second compound 0.0316 µM, first compound 0.001 µM) was 95.6% and the viability, T/C [9] was 80.1%. The viability, T/C [10] was 76%, the viability, T/C [11] was 59.6% and the viability, T/C [12] was 43.5%. The viability, T/C (second compound 0.1 µM, first compound 0.000316 µM) was 96.2%, the viability, T/C (second compound 0.1 µM, first compound 0.001 µM) was 108% and the viability, T/C [13] was 83.2%. The viability, T/C [14] was 84.5%, the viability, T/C [15] was 63% and the viability, T/C [16] was 46.1%. It also gave a viability, T/C (second compound 0.316 µM, first compound 0.000316 µM) of 99.7%, a viability, T/C (second compound 0.316 µM, first compound 0.001 µM) of 98% and a viability, T/C [17] of 92.2%. It also gave a viability, T/C [18] of 79.6%, a viability, T/C [19] of 59.4% and a viability, T/C [20] of 46.9%. For the same molecule, the viability, T/C (second compound 1 µM, first compound 0.000316 µM) was 90.6%, the viability, T/C (second compound 1 µM, first compound 0.001 µM) was 99.9% and the viability, T/C [21] was 95.2%. The viability, T/C [22] was 81.1%, the viability, T/C [23] was 55.4% and the viability, T/C [24] was 43.1%.
Work on `CC(Nc1ccc2c(c1)OCCn1cc(N3C(=O)OCC3C(F)F)nc1-2)C(N)=O` (stereo unspecified) + C=CC(=O)N1CCN(c2nc(OCC3CCCN3C)nc3c(F)c(-c4nc(N)cc(C)c4C(F)(F)F)c(Cl)cc23)C(C)C1 yielded an IC50 (second compound 0.00316 µM) of over 10000 nM, an IC50 (second compound 0.01 µM) of over 10000 nM and an IC50 (second compound 0.0316 µM) of over 10000 nM. The IC50 (second compound 0.1 µM) was over 10000 nM, the IC50 (second compound 0.316 µM) was over 10000 nM and the IC50 (second compound 1 µM) was over 10000 nM. The viability, T/C [3] was 108%, the viability, T/C [4] was 96.9% and the viability, T/C [25] was 88.6%. The viability, T/C [26] was 84.2%, the viability, T/C (second compound 0.00316 µM, first compound 3.16 µM) was 69.8% and the viability, T/C (second compound 0.00316 µM, first compound 10 µM) was 71.7%. The viability, T/C [7] was 103%, the viability, T/C [8] was 94.4% and the viability, T/C [27] was 85%. For the same molecule, the viability, T/C [28] was 77.1%, the viability, T/C (second compound 0.01 µM, first compound 3.16 µM) was 74% and the viability, T/C (second compound 0.01 µM, first compound 10 µM) was 63.3%. It also gave a viability, T/C [11] of 109%, a viability, T/C [12] of 98.9% and a viability, T/C [29] of 92.1%. It also gave a viability, T/C [30] of 76%, a viability, T/C (second compound 0.0316 µM, first compound 3.16 µM) of 81.5% and a viability, T/C (second compound 0.0316 µM, first compound 10 µM) of 65.5%. It also gave a viability, T/C [15] of 110%, a viability, T/C [16] of 88% and a viability, T/C [31] of 83%. The viability, T/C [32] was 77.2%, the viability, T/C (second compound 0.1 µM, first compound 3.16 µM) was 74.8% and the viability, T/C (second compound 0.1 µM, first compound 10 µM) was 68.1%. It also gave a viability, T/C [19] of 105%, a viability, T/C [20] of 114% and a viability, T/C [33] of 85.4%. The viability, T/C [34] was 77.8%, the viability, T/C (second compound 0.316 µM, first compound 3.16 µM) was 69.9% and the viability, T/C (second compound 0.316 µM, first compound 10 µM) was 64.4%. The viability, T/C [23] was 99.4%, the viability, T/C [24] was 88.7% and the viability, T/C [35] was 84.1%. The viability, T/C [36] was 84.1%, the viability, T/C (second compound 1 µM, first compound 3.16 µM) was 75.3% and the viability, T/C (second compound 1 µM, first compound 10 µM) was 65.7%.
`O=C(c1ccc(F)c(F)c1Nc1ccc(I)cc1F)N1CC(O)([C@@H]2CCCCN2)C1` + C=CC(=O)N1CCN(c2nc(OCC3CCCN3C)nc3c(F)c(-c4nc(N)cc(C)c4C(F)(F)F)c(Cl)cc23)C(C)C1 showed an IC50 (second compound 0.00316 µM) of 129 nM, an IC50 (second compound 0.01 µM) of 158 nM and an IC50 (second compound 0.0316 µM) of 159 nM. The IC50 (second compound 0.1 µM) was 191 nM, the IC50 (second compound 0.316 µM) was 150 nM and the IC50 (second compound 1 µM) was 144 nM. The viability, T/C [1] was 97.8%, the viability, T/C [2] was 90.8% and the viability, T/C [3] was 83.7%. It also gave a viability, T/C [4] of 53.5%, a viability, T/C [25] of 33.5% and a viability, T/C [26] of 22.8%. For the same molecule, the viability, T/C [5] was 106%, the viability, T/C [6] was 90.3% and the viability, T/C [7] was 78.2%. For the same molecule, the viability, T/C [8] was 61.2%, the viability, T/C [27] was 34.5% and the viability, T/C [28] was 20.1%. For the same molecule, the viability, T/C [9] was 92%, the viability, T/C [10] was 94.4% and the viability, T/C [11] was 82.7%. The viability, T/C [12] was 59.8%, the viability, T/C [29] was 35% and the viability, T/C [30] was 18.9%. The viability, T/C [13] was 91.6%, the viability, T/C [14] was 96% and the viability, T/C [15] was 86.5%. The viability, T/C [16] was 65.4%, the viability, T/C [31] was 38.1% and the viability, T/C [32] was 23.3%. It also gave a viability, T/C [17] of 95.6%, a viability, T/C [18] of 97% and a viability, T/C [19] of 84.5%. For the same molecule, the viability, T/C [20] was 58.6%, the viability, T/C [33] was 34% and the viability, T/C [34] was 21.6%. For the same molecule, the viability, T/C [21] was 97.3%, the viability, T/C [22] was 96.8% and the viability, T/C [23] was 86.1%. The viability, T/C [24] was 61.5%, the viability, T/C [35] was 26.7% and the viability, T/C [36] was 18.9%.
